Assay [1] concerns the target T1, BRD4 bromo domain 1 [BRD4(1)] (Homo sapiens, UniProt O60885).
T1 construct: N-terminally His6-tagged BRD4(1) (amino acids 67-152); made in house; host or cells: E. coli
As to the kind of experiment: BRD4/acetylated peptide H4 binding assay (TR-FRET), BRD4 bromo domain 1. The following applies: inhibition of BRD4(1)/Ac-H4 peptide interaction. The source says:
(§1) Protein-Protein Interaction Assay: BRD4/Acetylated Peptide H4 Binding Assay
To assess the BRD4(1) binding strength of the substances described in this application, the ability thereof to inhibit the interaction between BRD4(1) and acetylated histone H4 in a dose-dependent manner was quantified.
(§2) For this purpose, a time-resolved fluorescence resonance energy transfer (TR-FRET) assay was used, which measures the binding between N-terminally His6-tagged BRD4(1) (amino acids 67-152) and a synthetic acetylated histone H4 (Ac-H4) peptide with sequence GRGK(Ac)GGK(Ac)GLGK(Ac)GGAK(Ac)RHGSGSK-biotin. The recombinant BRD4(1) protein produced in-house according to Filippakopoulos et al., Nature, 2010, 468:1119-1123 and Cell, 2012, 149:214-231, was expressed in E. coli and purified by means of (Ni-NTA) affinity and (Sephadex G-75) size exclusion chromatography. The Ac-H4 peptide can be purchased, for example, from Biosyntan (Berlin, Germany).
(§3) In the assay, typically 11 different concentrations of each substance (0.1 nM, 0.33 nM, 1.1 nM, 3.8 nM, 13 nM, 44 nM, 0.15 μM, 0.51 μM, 1.7 μM, 5.9 μM and 20 μM) were analysed as duplicates on the same microtitre plate. For this purpose, 100-fold concentrated solutions in DMSO were prepared by serial dilutions (1:3.4) of a 2 mM stock solution into a clear, 384-well microtitre plate (Greiner Bio-One, Frickenhausen, Germany). From this, 50 nl were transferred into a black test plate (Greiner Bio-One, Frickenhausen, Germany). The test was started by the addition of 2 μl of a 2.5-fold concentrated BRD4(1) solution (final concentration typically 10 nM in the 5 μl of reaction volume) in aqueous assay buffer [50 mM HEPES pH 7.5, 50 mM sodium chloride (NaCl), 0.25 mM CHAPS and 0.05% serum albumin (BSA)] to the substances in the test plate. This was followed by a 10-minute incubation step at 22° C. for the pre-equilibration of putative complexes between BRD4(1) and the substances.
(§4) The mixture was then incubated in the dark at 22° C. for one hour and then at 4° C. for at least 3 hours and for no longer than overnight. The formation of BRD4(1)/Ac-H4 complexes was determined by the measurement of the resonance energy transfer from the streptavidin-Eu cryptate to the anti-6His-XL665 antibody present in the reaction. For this purpose, the fluorescence emission was measured at 620 nm and 665 nm after excitation at 330-350 nm in a TR-FRET measuring instrument, for example a Rubystar or Pherastar (both from BMG Lab Technologies, Offenburg, Germany) or a Viewlux (Perkin-Elmer). The ratio of the emissions at 665 nm and at 622 nm was taken as an indicator of the amount of BRD4(1)/Ac-H4 complexes formed.
The data (ratios) obtained were normalized, with 0% inhibition corresponding to the mean from the measurements for a set of controls (typically 32 data points) in which all the reagents were present. In these, in place of test substances, 50 nl of DMSO (100%) were used. Inhibition of 100% corresponded to the mean from the measurements for a set of controls (typically 32 data points) in which all the reagents except BRD4(1) were present. The IC50 was determined by regression analysis based on a 4-parameter equation (minimum, maximum, IC50, Hill; Y=max+(min−max)/(1+(X/IC50)Hill)).
Background: Time-resolved FRET reads energy transfer from a long-lived donor to a nearby acceptor.

In assay [2] the target is T2, BRD4 bromo domain 2 [BRD4(2)] (Homo sapiens, UniProt O60885).
T2 construct: N-terminally His6-tagged BRD4(2) (amino acids 357-445); made in house; host or cells: E. coli
As to the kind of experiment: BRD4/acetylated peptide H4 binding assay (TR-FRET), BRD4 bromo domain 2. The following applies: inhibition of BRD4(2)/Ac-H4 peptide interaction.
Description: as §1
To assess the BRD4(2) binding strength of the substances described in this application, the ability thereof to inhibit the interaction between BRD4(2) and acetylated histone H4 in a dose-dependent manner was quantified.
as §2, with “BRD4(2)” for “BRD4(1)”, “357-445)” for “67-152)”, “SGRGK(Ac)GGK(Ac)GLGK(Ac)GGAK(Ac)RHRKVLRDNGSGSK-biotin.” for “GRGK(Ac)GGK(Ac)GLGK(Ac)GGAK(Ac)RHGSGSK-biotin.”
as §3, with “concentrated BRD4(2)” for “concentrated BRD4(1)”, “typically 100” for “typically 10”, “chloride (NaCl); 50 mM potassium fluoride (KF);” for “chloride (NaCl),”, “between BRD4(2)” for “between BRD4(1)”, “substances. Subsequently, 3 μl of a 1.67-fold concentrated solution (in assay buffer) consisting of Ac-H4 peptide (83.5 nM) and TR-FRET detection reagents [83.5 nM anti-6His-XL665 (Cisbio Bioassays, Codolet, France) and 12.52 nM streptavidin-Eu), (Perkin Elmer, #W1024)] in assay buffer were added.” for “substances.”
as §4, with “BRD4(2)/Ac-H4” for “BRD4(1)/Ac-H4”, “chelate” for “cryptate”
The data (ratios) obtained were normalized, with 0% inhibition corresponding to the mean from the measurements for a set of controls (typically 32 data points) in which all the reagents were present. In these, in place of test substances, 50 nl of DMSO (100%) were used. Inhibition of 100% corresponded to the mean from the measurements for a set of controls (typically 32 data points) in which all the reagents except BRD4(2) were present. The IC50 was determined by regression analysis based on a 4-parameter equation (minimum, maximum, IC50, Hill; Y=max+(min−max)/(1+(X/IC50)Hill)).

In the case of `COc1ccc(CN2c3cc(Nc4cccc(S(=O)(=O)N5CCOCC5)c4)ccc3N(C)C(=O)[C@H]2C)cc1` [Example 11, (3R)-4-(4-Methoxybenzyl)-1,3-dimethyl-6-{[3-(morpholin-4-ylsulphonyl)phenyl]amino}-3,4-dihydroquinoxalin-2(1H)-one], the IC50 in assay [1] stood at 208 nM; in assay [2] it was 48 nM.
On the same counts, the results for `COc1ccc(C(=O)N2CCN(C)CC2)cc1Nc1ccc2c(n1)N(C1CCOCC1)[C@H](C)C(=O)N2C` [Example 17, (3R)-6-({2-Methoxy-5-[(4-methylpiperazin-1-yl)carbonyl]phenyl}amino)-1,3-dimethyl-4-(tetrahydro-2H-pyran-4-yl)-3,4-dihydropyrido[2,3-b]pyrazin-2(1H)-one] are 129 nM and 60 nM.
In the same order, the values of `COc1ccc(C(=O)NCCN(C)C)cc1Nc1ccc2c(n1)N(C1CCOCC1)[C@H](C)C(=O)N2C` [Example 19, N-2-(Dimethylamino)ethyl-3-{[(3R)-1,3-dimethyl-2-oxo-4-(tetrahydro-2H-pyran-4-yl)-1,2,3,4-tetrahydropyrido[2,3-b]pyrazin-6-yl]amino}-4-methoxybenzamide] are 234 nM and 132 nM.
In the same order, the values of `C[C@@H]1C(=O)N(C)c2ccc(Nc3cccc(C(=O)N[C@H]4CC[C@H](N5CCN(CC6CC6)CC5)CC4)c3)cc2N1Cc1c(F)cccc1F` [Example 22, N-{trans-4-[4-(Cyclopropylmethyl)piperazin-1-yl]cyclohexyl}-3-{[4-(2,6-difluorobenzyl)-1,3-dimethyl-2-oxo-1,2,3,4-tetrahydroquinoxalin-6-yl]amino}benzamide] are 708 nM and 157 nM.
Take `CCN(CC)S(=O)(=O)c1cccc(Nc2ccc3c(n2)N(C2CCOCC2)[C@H](C)C(=O)N3C)c1` [Example 32, 3-{[(3R)-1,3-dimethyl-2-oxo-4-(tetrahydro-2H-pyran-4-yl)-1,2,3,4-tetrahydropyrido[2,3-b]pyrazin-6-yl]amino}-N,N-diethylbenzene-sulphonamide]: the IC50 in assay [1] came to 22 nM; in assay [2] it was 39 nM.
In the same order, the values of `C[C@H]1C(=O)N(C)c2ccc(Nc3cccc(S(=O)(=O)N[C@H]4CC[C@H](N5CCN(CC6CC6)CC5)CC4)c3)nc2N1C1CCOCC1` [Example 36, N-{trans-4-[4-(cyclopropylmethyl)-piperazin-1-yl]cyclohexyl}-3-{[(3S)-1,3-dimethyl-2-oxo-4-(tetrahydro-2H-pyran-4-yl)-1,2,3,4-tetrahydropyrido[2,3-b]pyrazin-6-yl]amino}-benzenesulphonamide] are 727 nM and 4230 nM.
Turning to `C[C@@H]1C(=O)N(C)c2ccc(Nc3cccc(S(=O)(=O)N4CC5(CCC5)C4)c3)nc2N1C1CCN(C(=O)OC(C)(C)C)CC1` [Example 60, tert-butyl 4-[(3R)-6-{[3-(2-azaspiro[3.3]hept-2-ylsulphonyl)phenyl]-amino}-1,3-dimethyl-2-oxo-2,3-dihydropyrido[2,3-b]pyrazin-4(1H)-yl]piperidine-1-carboxylate], the IC50 was 200 nM in assay [1] and 265 nM in assay [2].
On the same counts, the results for `C[C@@H]1C(=O)N(C)c2ccc(Nc3cccc(S(=O)(=O)N(C)C)c3)nc2N1C1CCN(C(=O)OC(C)(C)C)CC1` [Example 61, tert-butyl 4-[(3R)-6-{[3-(dimethylsulphamoyl)-phenyl]amino}-1,3-dimethyl-2-oxo-2,3-dihydropyrido[2,3-b]pyrazin-4(1H)-yl]piperidine-1-carboxylate] are 208 nM and 166 nM.
On the same counts, the results for `C[C@@H]1C(=O)N(C)c2ccc(Nc3cccc(S(=O)(=O)N4CCN(C)CC4)c3)nc2N1C1CCN(C(=O)OC(C)(C)C)CC1` [Example 62, tert-butyl 4-[(3R)-1,3-dimethyl-6-({3-[(4-methylpiperazin-1-yl)sulphonyl]phenyl}-amino)-2-oxo-2,3-dihydropyrido[2,3-b]pyrazin-4(1H)-yl]piperidine-1-carboxylate] are 256 nM and 133 nM.
On the same counts, the results for `Cc1ccc(Nc2ccc3c(n2)N(C2CCOCC2)[C@H](C)C(=O)N3C)cc1S(N)(=O)=O` [Example 63, 5-{[(3R)-1,3-dimethyl-2-oxo-4-(tetrahydro-2H-pyran-4-yl)-1,2,3,4-tetrahydropyrido[2,3-b]pyrazin-6-yl]amino}-2-methylbenzene-sulphonamide] are 163 nM and 158 nM.
In the case of `Cc1cccc(N2c3nc(Nc4cccc(S(=O)(=O)N5CCOCC5)c4)ccc3N(C)C(=O)C2C)c1` (stereo not shown) [Example 64, 1,3-dimethyl-4-(3-methylphenyl)-6-{[3-(morpholin-4-ylsulphonyl)phenyl]-amino}-3,4-dihydropyrido[2,3-b]pyrazin-2(1H)-one], the values for the IC50 in assay [1] and in assay [2] were 271 nM and 197 nM, respectively.

The term IC50 denotes the midpoint of a concentration-inhibition curve. A low value points to higher potency.

Source of the values: patent publication US20160176867A1, “MODIFIED BET-PROTEIN-INHIBITING DIHYDROQUINOXALINONES AND DIHYDROPYRIDOPYRAZINONES” (BAYER PHARMA AKTIENGESELLSCHAFT, priority 2013, published 2016).
